Legend:
[1] = molecular target: T1, human P-Selectin-IgG-chimera (Homo sapiens, UniProt P16109); test: Sialyl Lewis x Tyrosine Sulfate Assay (sLex TSA), P-selectin; assay type: binding; settings: for P-Selectin [% Inhib.] / inhibition at 100 µM: compound at 100 μM; for inhibition at 100 µM: read-out: P-Selectin [% Inhib.]
T1 sequence (P16109 42-771 limits assumed): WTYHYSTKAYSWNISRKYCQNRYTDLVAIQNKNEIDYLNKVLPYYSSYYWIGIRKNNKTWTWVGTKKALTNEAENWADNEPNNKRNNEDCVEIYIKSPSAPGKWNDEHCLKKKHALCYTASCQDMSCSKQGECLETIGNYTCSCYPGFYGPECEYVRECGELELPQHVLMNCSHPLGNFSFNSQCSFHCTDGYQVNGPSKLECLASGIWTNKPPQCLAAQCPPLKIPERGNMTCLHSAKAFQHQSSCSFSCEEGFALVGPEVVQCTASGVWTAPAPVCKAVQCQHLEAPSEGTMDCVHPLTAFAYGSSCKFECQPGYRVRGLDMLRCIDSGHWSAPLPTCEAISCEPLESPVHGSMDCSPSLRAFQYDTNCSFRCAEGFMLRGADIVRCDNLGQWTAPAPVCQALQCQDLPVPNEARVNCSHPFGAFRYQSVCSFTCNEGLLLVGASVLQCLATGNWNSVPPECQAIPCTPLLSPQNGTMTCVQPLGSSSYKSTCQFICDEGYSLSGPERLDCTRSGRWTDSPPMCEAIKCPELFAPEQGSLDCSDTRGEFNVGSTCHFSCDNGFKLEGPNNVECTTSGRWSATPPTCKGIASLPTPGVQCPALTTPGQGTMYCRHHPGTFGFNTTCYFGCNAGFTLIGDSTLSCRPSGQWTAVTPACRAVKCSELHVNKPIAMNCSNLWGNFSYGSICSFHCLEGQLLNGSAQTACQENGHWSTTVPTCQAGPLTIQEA
Procedure: (§1) Compounds of the present invention are assayed on a molecular level for their ability to inhibit the binding of P-, L-, or E-selectin chimeric molecules to sLe^x and tyrosinesulfate residues linked to a polymeric matrix as a PSGL-1 substitute.
(§2) Microtiter plates are coated overnight in carbonate buffer pH9.6 with goat anti human Fc mAB (10 μg/ml). After washing in assay buffer (25 mM 4-(2-hydroxyethyl)-1-piperazineethanesulfonic acid (HEPES), 150 mM NaCl, 1 mM CaCl2 pH7.4) and blocking (3% bovine serum albumin (BSA) in assay buffer) plates are incubated for 2 h at 37° C. with human P-Selectin-IgG-chimera (0.61 nM respectively 150 ng/mL) or human L-Selectin-IgG-chimera (0.61 nM respectively 89 ng/mL) or human E-Selectin-IgG-chimera (0.61 nM respectively 131 ng/mL). 5 μl of sLe^x-tyrosine sulfate polyacrylamide (1 mg/ml) carrying 15% sLe^x, 10% Tyrosine-sulfate and 5% biotin is complexed with 20 μl Streptavidin-Peroxidase solution (1 mg/ml) and 25 μl assay buffer without CaCl2. For use in the assay, the ligand complex is diluted 1:10000 in assay buffer and further diluted 1:1 with varying amounts of compounds in assay buffer incl. 2% DMSO. This mixture is added to the wells precoated with E- or P-selectin. After incubation for 2 h at 37° C., wells are washed for six times with in assay buffer incl. 0.005% Polyoxyethylenesorbitan monolaurate (TWEEN 20), developed for 10-15 min with 20 μl 3,3′,5,5′-tetramethylbenzidine (TMB)/H2O2 substrate solution and stopped with 20 μl […]. Bound sLe^x-Tyrosine sulfate ligand complex is determined by measuring optical density at 450 nm vs. 620 nm in a Fusion alpha-FP reader (sold from Packard Bioscience, Dreieich, Germany).

[2] = molecular target: T2, human E-Selectin-IgG-chimera (Homo sapiens, UniProt P16581); test: Sialyl Lewis x Tyrosine Sulfate Assay (sLex TSA), E-selectin; assay type: binding; settings: for E-Selectin [% Inhib.] / inhibition at 100 µM: compound at 100 μM; for inhibition at 100 µM: read-out: E-Selectin [% Inhib.]
T2 construct: fused on or other part: human IgG Fc part, a tag and dimerising handle that is captured by the goat anti-human Fc antibody on the plate
T2 sequence (P16581 22-175 limits assumed): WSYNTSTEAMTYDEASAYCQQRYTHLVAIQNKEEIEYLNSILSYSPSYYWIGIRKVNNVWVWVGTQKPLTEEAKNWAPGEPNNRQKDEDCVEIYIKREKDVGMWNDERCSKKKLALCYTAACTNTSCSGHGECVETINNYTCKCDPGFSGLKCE
Procedure: as §1, §2

[3] = molecular target: T3, human L-Selectin-IgG-chimera (Homo sapiens, UniProt P14151); test: Sialyl Lewis x Tyrosine Sulfate Assay (sLex TSA), L-selectin; assay type: binding; settings: for L-Selectin [% Inhib.] / inhibition at 100 µM: compound at 100 μM; for inhibition at 100 µM: read-out: L-Selectin [% Inhib.]
T3 construct: fused on or other part: human IgG Fc part, a tag and dimerising handle that is captured by the goat anti-human Fc antibody on the plate
T3 sequence (P14151 39-318 limits assumed): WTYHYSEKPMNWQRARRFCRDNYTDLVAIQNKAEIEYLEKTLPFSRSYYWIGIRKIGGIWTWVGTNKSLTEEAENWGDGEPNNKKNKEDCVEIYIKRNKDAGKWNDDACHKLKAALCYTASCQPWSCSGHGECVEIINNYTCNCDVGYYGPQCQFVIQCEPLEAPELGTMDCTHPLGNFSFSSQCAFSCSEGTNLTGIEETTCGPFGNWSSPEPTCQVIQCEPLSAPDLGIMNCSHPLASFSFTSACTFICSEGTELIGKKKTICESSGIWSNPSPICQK
Procedure: as §1, §2

[4] = Parallel Artificial Membrane Permeation Assay (PAMPA); assay type: in vitro ADME; settings: 16 hours, room temperature
Procedure: The test compounds are dissolved at 10 mM in DMSO and diluted to 500 μM with PBS pH 7.4 or pH 4.0, respectively resulting in ‘donor solutions’. For use as an artificial membrane, a 1% solution of lecithin (w/v) in dodecane is prepared and sonicated. Then, 5 μl of the lecithin/dodecane mixture are carefully pipetted into each donor plate well. Immediately after the application of the artificial membrane, 150 μl of drug containing donor solutions are added to each well of the donor plate. Each well of the acceptor plate is filled with 300 μl buffer (PBS with 5% DMSO at pH 7.4 or pH 4.0, respectively) and the drug-filled donor plate is placed onto the acceptor plate, making sure the membrane is in contact with the buffer. After replacement of the lid, the assembled plates are transferred into a sealed box equipped with a moistured towel and incubated at room temperature for 16 hours. Then, the wells of the acceptor plate are analyzed with LC/MS.

Row | P-Selectin [% Inhib.] [1] | E-Selectin [% Inhib.] [2] | L-Selectin [% Inhib.] [3] | IC50 [1] | inhibition at 100 µM [1] | IC50 [2] | inhibition at 100 µM [2] | inhibition at 100 µM [3] | IC50 [3] | [% flux] at pH 4.0 ([4]; pH 4.0, 500 μM donor) | [% flux] at pH 7.4 ([4]; pH 7.4, 500 μM donor) | SMILES
1 | 73% | 42% | 48% | – | – | – | – | – | – | – | – | Cc1c(NC(=O)Cc2ccc(O)c(O)c2O)cccc1C(=O)O [Compound 113]
2 | – | – | – | 2.1 µM | 57% | 1 µM | 58% | 52% | – | – | – | O=C(O)Cc1cccc(NC(=O)Cc2cc(O)c(O)c(O)c2)c1 [Compound 98]
3 | 87% | 68% | 81% | – | – | – | – | – | – | – | – | O=C(O)Cc1ccc(-c2ccccc2NC(=O)Cc2cc(O)c(O)c(O)c2)s1 [Compound 103]
4 | 94% | 52% | 85% | – | – | – | – | – | – | – | – | O=C(O)Cc1ccc(-c2ccccc2NC(=O)CCc2ccc(O)c(O)c2O)s1 [Compound 106]
5 | – | – | – | 3.4 µM | 86% | 3.1 µM | 90% | 84% | 5.7 µM | – | – | O=C(CCc1cc(O)c(O)c(O)c1)NCC1CCC(C(=O)O)CC1 (stereo not drawn) [Compound 105]
6 | 40% | 21% | 27% | – | – | – | – | – | – | – | – | O=C(Cc1ccc(O)c(O)c1O)NCC1CCC(C(=O)O)CC1 (stereo not drawn) [Compound 100]
7 | – | – | – | 7.4 µM | 97% | – | 38% | 83% | 16 µM | – | – | O=C(O)Cc1cccc(NC(=O)Cc2ccc(O)c(O)c2O)c1 [Compound 112]
8 | 90% | 89% | 81% | – | – | – | – | – | – | – | – | O=C(O)Cc1cccc(-c2ccccc2NC(=O)CCc2cc(O)c(O)c(O)c2)c1 [Compound 95]
9 | 89% | – | 88% | – | – | – | – | – | – | – | – | Cc1c(NC(=O)CCc2ccc(O)c(O)c2O)cccc1C(=O)O [Compound 115]
10 | – | – | – | – | 73% | 2.3 µM | 82% | 72% | – | – | – | O=C(O)Cc1cccc(NC(=O)CCc2cc(O)c(O)c(O)c2)c1 [Compound 109]
11 | 82% | 14% | 55% | – | – | – | – | – | – | – | – | O=C(Cc1ccc(O)c(O)c1O)NCc1ccc(C(=O)O)cc1 [Compound 119]
12 | – | – | – | 1.1 µM | 86% | 0.8 µM | 63% | 73% | 1.4 µM | – | – | O=C(Cc1cc(O)c(O)c(O)c1)Nc1cccc(C(=O)O)c1 [Compound 96]
13 | – | – | – | 4.2 µM | 78% | 4.9 µM | 79% | 76% | 8.7 µM | – | – | O=C(O)Cc1cccc(-c2ccccc2NC(=O)Cc2cc(O)c(O)c(O)c2)c1 [Compound 94]
14 | 96% | 96% | 92% | – | – | – | – | – | – | – | – | O=C(CCc1cc(O)c(O)c(O)c1)Nc1cccc(C(=O)O)c1 [Compound 110]
15 | – | – | – | – | 68% | – | 20% | 63% | – | 0% | 17% | COC(=O)c1ccccc1NC(=O)Cc1ccc(O)c(O)c1O [Compound 93]
16 | – | – | – | 21.7 µM | 86% | 8.4 µM | 94% | 89% | 109 µM | – | – | Cc1c(NC(=O)CCc2cc(O)c(O)c(O)c2)cccc1C(=O)O [Compound 117]
17 | – | – | – | 1.7 µM | 86% | 1.3 µM | 85% | 84% | 1.8 µM | – | – | Cc1ccc(C(=O)O)cc1NC(=O)CCc1cc(O)c(O)c(O)c1 [Compound 108]
18 | – | – | – | 13 µM | 88% | 7.3 µM | 92% | 87% | 15 µM | – | – | Cc1ccc(C(=O)O)cc1NC(=O)CCc1ccc(O)c(O)c1O [Compound 116]
19 | – | – | – | 2.1 µM | 99% | 0.6 µM | 46% | 97% | 7 µM | – | – | O=C(Cc1ccc(O)c(O)c1O)Nc1cccc(C(=O)O)c1 [Compound 111]
20 | 87% | 53% | 75% | – | – | – | – | – | – | – | – | Cc1ccc(C(=O)O)cc1NC(=O)Cc1cc(O)c(O)c(O)c1 [Compound 107]
21 | – | – | – | 2.8 µM | 67% | 3 µM | 67% | 62% | 3.3 µM | – | – | O=C(Cc1cc(O)c(O)c(O)c1)NCC1CCC(C(=O)O)CC1 (stereo not drawn) [Compound 104]
22 | – | – | – | – | 84% | – | 54% | 88% | – | – | – | COC(=O)Cc1cccc(-c2ccccc2NC(=O)CCc2cc(O)c(O)c(O)c2)c1 [Compound 73, {2′-[3-(3,4,5-Trihydroxy-phenyl)-propionylamino]-biphenyl-3-yl}-acetic acid methyl ester]
23 | 99% | 38% | 95% | – | – | – | – | – | – | – | – | O=C(CCc1ccc(O)c(O)c1O)Nc1cccc(C(=O)O)c1 [Compound 114]

Source: US8367677B2, “Non-glycosylated/non-glycosidic/non-peptidic small molecule PSGL-1 mimetics for the treatment of inflammatory disorders” (Revotar Biopharmaceuticals AG, priority 2004, dated 2013)
